From article PMC7217877, “N-AS-triggered SPMs are direct regulators of microglia in a model of Alzheimer’s disease” (Nature Communications, 2020) come the findings set out here.

For this test, the system named is microglia. The test is described as follows: quantification of 15R-LXA4, RvE1, RvD1 in primary cells (LC-MS/MS). In kind it is cell-based, C57BL/6 mice. Details: unit not given here. The following applies: replicates. Here is the method:
Lipid mediators metabololipidomics were performed according to previously described procedures with minor modifications[4],[30]. To confirm the biosynthesis of lipid mediators by recombinant COX2 treated with N-AS or aspirin, 10 U of human recombinant COX2 (Cayman, 60122) was incubated in the presence of 500 μM aspirin (Sigma-Aldrich, A5376) or N-AS (Sigma-Aldrich, 01912) at 37 °C for 30 min. The enzyme was filtered with a Microcon column (Millipore) to remove unreacted aspirin or N-AS and was then resuspended in 0.1 M Tris-HCl (pH 8.0). Next, 500 μM phenol (Sigma-Aldrich) and 1 μM hematin-porcine (Sigma-Aldrich) were added immediately before incubation with 100 μM AA, EPA or DHA (Cayman) at 37 °C for 2 h, respectively. The mixtures were incubated with 30 U of human 5-LOX (Cayman, 60402) containing 2 mM CaCl2 (Sigma-Aldrich), 1 mM ATP (Amresco) and 5 μM 13-HpODE (Cayman) as activators. Also, to validate the importance of residue S565 for N-AS-acetylation of COX2 and production of SPMs, 10 U of the COX2 S565A mutant was used in the above-described method. In addition, to confirm SPM generation in neurons and microglia, these cells were treated with Aβ and sonicated in neuronal and glial culture medium. […] To evaluate the relationship of N-AS and SPM production in microglia, microglia were isolated from WT, APP/PS1, and APP/PS1 treated with N-AS mice at 9 months of age. The microglia were sonicated and resuspended in microglial culture medium. The supernatants were incubated with 100 μM AA, EPA, and DHA (Cayman) at 37 °C for 2 h. A 50 μl aliquot of the mixture from each cell lysate was added to a 250 μl aliquot of 1 ng ml^−1 of 15S-LXA4-d5 (internal standard, Cayman) methanol solution. After vortexing for 10 min and centrifuging at 15,974×g for 5 min, the supernatant was subjected to the analysis of the lipid mediators using an Agilent 6470 Triple Quad LC-MS/MS system (Agilent) coupled to an Agilent 1290 HPLC system. Chromatographic separation was achieved using a Synergi Polar RP (4 μm, 2.0 mm i.d. × 150 mm, Phenomenex). Analytes were eluted with a mobile phase consisting of water: formic acid (100:0.1 v/v) (phase A) and methanol: formic acid (100:0.1 v/v) (phase B) in gradient elution mode for 23 min a flow rate of 0.2 ml min^−1. The elution gradient was as follows: from 0 to 0.1 min the content of phase A was 37% and the content of phase A was decreased to 10% and maintained for 5.5 min. The content of phase A was increased back to 37% at 6.0 min and maintained for 23 min. Quantification was carried out using MRM in negative ionization mode and collision energy of 10–15 eV. The mass transition from Q1 to Q3 is shown in Supplementary Table 2. In this study, the peak areas for all components were automatically integrated using MassHunter B 06.00. […]

Values joined by “and” are separate entries in the source; they are usually repeats but may differ in a detail not shown here. Equal entries are not always repeated.

In the case of `CC(=O)SCCNC(=O)CCNC(=O)[C@H](O)C(C)(C)COP(=O)(O)OP(=O)(O)OC[C@H]1O[C@@H](n2cnc3c(N)ncnc32)[C@H](O)[C@@H]1OP(=O)(O)O` [Acetyl-CoA, acetyl-CoA], under “Ab + supplement”, the “15R-LxA4 (Fig 3i)” value was 23.4411 and 23.4018 and 22.7231 and 22.8804 and 24.0018 and 22.8017; the “RvD1 (Fig 3i)” value was 1.293 and 1.217 and 1.321 and 1.255 and 1.269 and 1.288; the “RvE1 (Fig 3i)” value was 7.62 and 7.421 and 7.916 and 7.52 and 7.668 and 7.718.

For “Ab: Aβ 1–42 (Invitrogen, 03112) used to induce an AD environment in cells”, where the note is “Ab, no supplement”, the “15R-LxA4 (Fig 3i)” value is 0.02349 and 0.02377 and 0.02373 and 0.02259 and 0.02438 and 0.02316; the “RvD1 (Fig 3i)” value was 0.01012; the “RvE1 (Fig 3i)” value was 0.01237 and 0.02326 and 0.01244 and 0.01782 and 0.01785 and 0.01513.

For the molecule `CCCCCCCCCCCCC/C=C/[C@@H](O)[C@H](CO)NC(C)=O` [N-AS, N-((2S,3R,E)-1,3-Dihydroxyoctadec-4-en-2-yl)acetamide], where the note is “Ab + supplement”, the “15R-LxA4 (Fig 3i)” value is 7.914 and 7.871 and 7.582 and 7.755 and 8.0725 and 7.669; the “RvD1 (Fig 3i)” value was 0.9961 and 0.9192 and 1.008 and 0.9576 and 0.9636 and 0.9828; the “RvE1 (Fig 3i)” value was 3.41 and 3.669 and 3.726 and 3.54 and 3.698 and 3.633.

With `CCCCCCCCCCCCC/C=C/[C@@H](O)[C@@H](N)CO` [Sph, sphingosine], for the setting “Ab + supplement”, the “15R-LxA4 (Fig 3i)” value is 0.0305 and 0.03209 and 0.03444 and 0.02809 and 0.03291 and 0.03127; the “RvD1 (Fig 3i)” value came out at 0.01033; the “RvE1 (Fig 3i)” value was 0.01434 and 0.01128 and 0.01433 and 0.01281 (2×) and 0.01357.

B1: Sphk1: purified sphingosine kinase1 enzyme (Cayman, 10348) supplemented to cell lysates (protein, UniProt Q9NYA1 1-384, looked up)
Sphingosine kinase 1: MDPAGGPRGVLPRPCRVLVLLNPRGGKGKALQLFRSHVQPLLAEAEISFTLMLTERRNHARELVRSEELGRWDALVVMSGDGLMHEVVNGLMERPDWETAIQKPLCSLPAGSGNALAASLNHYAGYEQVTNEDLLTNCTLLLCRRLLSPMNLLSLHTASGLRLFSVLSLAWGFIADVDLESEKYRRLGEMRFTLGTFLRLAALRTYRGRLAYLPVGRVGSKTPASPVVVQQGPVDAHLVPLEEPVPSHWTVVPDEDFVLVLALLHSHLGSEMFAAPMGRCAAGVMHLFYVRAGVSRAMLLRLFLAMEKGRHMEYECPYLVYVPVVAFRLEPKDGKGVFAVDGELMVSEAVQGQVHPNYFWMVSGCVEPPPSWKPQQMPPPEEPL
For B1, under “Ab + supplement”, the “15R-LxA4 (Fig 3i)” value was 0.02407 and 0.02353 and 0.02184 and 0.02402 and 0.02413 and 0.02293; the “RvD1 (Fig 3i)” value turned out to be 0.01112; the “RvE1 (Fig 3i)” value was 0.01218 and 0.0124 and 0.01241 (2×) and 0.01229 and 0.01235.
